Reference: patent publication US20240350483A1, “COMBINATION THERAPY FOR THE TREATMENT OF PSYCHIATRIC DISORDER” (GSKB Pharmaceuticals, LLC, priority 2023, published 2024)

Key:
[1] = system: Patients with Major Depressive Disorder (MDD); assay: Case Study 1: outpatient treatment of chronic suicidal ideation and behavior; type: in vivo, human
Procedure: Treatment of Chronic Suicidal Ideation and Behavior in Patients with Major Depressive Disorder (MDD). A married person and parent of three, presented to the outpatient clinic Jul. 16, 2019 to establish care with a new psychiatrist for management of their depression, mood swings, and persistent suicidal ideations. They reported that their current medications, bupropion XL 300 mg q daily, valproic acid 500 mg BID, quetiapine 200 mg daily, and venlafaxine XR 150 mg BID, modafinil 200 mg q AM and noon, buspirone 10 mg TID are not helping. They had been experiencing acute daily changes in mood consisting of unhappiness, irritability, and anger with lead to arguments with their spouse and family. They had been suffering from persistent depression, self-harm, and suicidal impulses. They had three previous suicide attempts resulting in hospitalization, the most recent being six years prior. • During the Initial Psychiatric Evaluation, they were alert and oriented to person, place, time, and situation. […]

[2] = system: Patients with Major Depressive Disorder (MDD); assay: Case 2: outpatient treatment of persistent suicidal ideation; type: in vivo, human
From the text: Treatment of Chronic Suicidal Ideation and Behavior in Patients with Major Depressive Disorder (MDD).
A person presented to the outpatient psychiatric clinic accompanied by their spouse and child after being referred by a friend. Their condition had not improved over the past several years despite ongoing psychiatric treatment including in-patient hospitalizations and multiple medication failures. They reported they had been, “feeling the stress”, experiencing racing and ruminating thoughts, difficulty with conversation, and panic. They expressed persistent suicidal ideation. They denied current or past self-injurious behavior.
• Sensorium: Alert and oriented to person, place, time, situation • Appearance: Casually dressed, well kempt, appeared older than stated age, thin to normal body habitus • Affect: Constricted, tearful at times • Mood: Depressed • Speech: Normal rate, tone, and rhythm. Louder when irritable and argumentative • Thought Content: Passive suicidal ideation, no delusions. • Thought Process: Coherent, logical, mildly circumstantial. • Perception: No auditory or visual hallucinations • Memory: Intact • Abstract Thinking: Intact • Judgment: Fair to good • Insight: Good
During their initial psychiatric evaluation, they were diagnosed with Bipolar Disorder, Unspecified; Rule out Amphetamine-induced psychosis due to their intermittent paranoia, impulsivity, and agitation. […]

With `CCc1nn(CCCN2CCN(c3cccc(Cl)c3)CC2)c(=O)n1CCOc1ccccc1` [nefazodone, 1-(3-[4-(3-chlorophenyl)piperazin-1-yl]propyl)-3-ethyl-4-(2-phenoxyethyl)-1H-1,2,4-triazol-5 (4H)-one] the “suicidal ideations after forgetting and running out of nefazodone” value ([1]; Nov. 11, 2019, treatment interrupted) was “more suicidal ideations”, the side effect reported ([1]; suspected to be caused by increase in nefazodone to 200 mg BID) was “drowsiness” and the “suicidal thoughts after restarting nefazodone” value ([2]; nefazodone restarted and slightly increased, close follow up) was “rapid disappearance”. For the same compound, the “suicidal ideation after stopping nefazodone” value ([2]; nefazodone stopped for several weeks, after eight months of stability) was “having suicidal ideation”.
